This is an account of results in paper PMC8518382, “Identification of a Bromodomain‐like Region in 15‐Lipoxygenase‐1 Explains Its Nuclear Localization” (Angewandte Chemie (International Ed. in English), 2021).

Structures are written as SMILES. pIC50: −log10 of the molar value. Where “and” joins values, the source holds several entries; their conditions need not be identical. Equal values may be shown once.

In experiment [1] the target is T1, 15-LOX-1 (Homo sapiens, UniProt P16050).
T1 sequence (P16050 1-662): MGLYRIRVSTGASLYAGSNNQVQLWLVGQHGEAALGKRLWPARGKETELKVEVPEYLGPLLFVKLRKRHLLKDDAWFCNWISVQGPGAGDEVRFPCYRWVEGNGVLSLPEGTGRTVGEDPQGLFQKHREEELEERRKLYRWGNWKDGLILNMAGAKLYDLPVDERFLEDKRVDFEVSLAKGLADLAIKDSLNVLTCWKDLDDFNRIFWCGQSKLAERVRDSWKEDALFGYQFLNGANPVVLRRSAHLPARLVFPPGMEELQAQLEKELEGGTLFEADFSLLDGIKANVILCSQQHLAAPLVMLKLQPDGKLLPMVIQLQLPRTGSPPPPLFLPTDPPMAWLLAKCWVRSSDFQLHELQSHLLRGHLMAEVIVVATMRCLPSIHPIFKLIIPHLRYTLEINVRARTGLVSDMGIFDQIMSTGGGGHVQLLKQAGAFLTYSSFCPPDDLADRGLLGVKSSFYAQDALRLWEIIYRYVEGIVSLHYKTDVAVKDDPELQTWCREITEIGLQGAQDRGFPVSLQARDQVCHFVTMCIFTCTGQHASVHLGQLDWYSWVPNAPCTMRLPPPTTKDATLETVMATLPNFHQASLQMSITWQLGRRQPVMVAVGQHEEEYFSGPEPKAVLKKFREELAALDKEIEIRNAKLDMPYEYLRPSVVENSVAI
The experiment in a line: 15-LOX-1 activity assay, UV-absorbance change for linoleic acid conversion. The format is biochemical. Also on record: His-tag (N); made in house; host or cells: E. coli BL21(DE3). The settings on record: for IC50: 10 min pre-incubation at RT, 25 µM linoleic acid, absorbance 234 nm; for Hill-slope: linoleic acid conversion assay. The text has this: In brief, an alkyne‐alcohol was linked to propargyl halide (Cl or Br) using a CuI‐catalyzed Sonogashira cross‐coupling reaction followed by biotinylation of the alcohol using EDCI and HOBt as reagents to provide the desired biotinylated bis‐alkyne probes. The biotinylated bis‐alkynes were subjected to 15‐LOX‐1 binding studies using a 15‐LOX‐1 activity assay based on the UV‐absorbance change for linoleic acid conversion (Figure 1 a). […] Next, we evaluated the effect of the extension of the terminal ethyl substitution of inhibitor 1. […]
empty plasmid was proceed with the same procedure, which lysate was used as the negative control (referred as BL21 control later) in 15-LOX-1 recombinant enzyme inhibition studies.
1.3. Purification of recombinant human 15-LOX-1
The 15-LOX-1 with N-terminal his-tag was produced as described above. After removing the cell debris, the supernatant containing 15-LOX-1 was loaded on a Ni-NTA column (Qiagen, Hilden, Germany) pre-equilibrated with LOX lysis buffer. The column was washed twice with 30 column volume of LOX lysis buffer, and once with 30 column volume of wash buffer (25 mM HEPES, 300 mM NaCl, 25 mM Imidazole, pH 8.0). Later, the 15-LOX-1 was eluted twice with 2 column volume of elution buffer (25 mM HEPES, 300 mM NaCl, 250 mM Imidazole, pH 8.0), followed by desalting with a PD-10 column (Sigma-Aldrich) with LOX storage buffer (25 mM HEPES, 20% Glycerol, pH 7.5). The desalted 15-LOX-1 was further purified and concentrated with Vivaspin Turbo 15 (30.000 MWCO). The protein concentration was determined by Nanodrop spectrophotometry. The 100 μl aliquots of 15-LOX-1 were stored at -20 for further experiments.
15-LOX-1 recombinant enzyme inhibition assay
The 15-LOX-1 inhibition assay has been detailed previously. Briefly, the conversion of linoleic acid to hydroperoxy-(9Z,11E)-octadecadienoic acid (λmax of 234 nm) was used to determine the activity of the 15-LOX-1 enzyme. The conversion rate was the slope of UV-absorbance at 234 nm overtime at the […]
To determine the IC50 of probes, the cell lysate was pre-diluted in LOX assay buffer at a ratio of 1:160. The inhibition assay was done in an F-bottom UV-STAR 96-well plate, in which 50 µl of the diluted enzyme was incubated with 140 µl of a probe diluted in LOX assay buffer for 10 min at room temperature (RT). Later 10 µl of 500 µM linoleic acid dissolved in ethanol was added to the plate to reach a final concentration of 25 µM. The UV-absorbance at 234 nm was determined by a BioTek Synergy H1 plate reader (BioTek, Winooski, VT, USA) . The slope of the 15-LOX-1 sample untreated with the probe was set as 100%, while the slope of the BL21 control sample was set as 0%.
For the determination of enzyme kinetics, a series concentration of linoleic acid was used. Fifty µl of pre-diluted 15-LOX-1 enzyme was incubated with 140 µl of probe solution at a fixed concentration for 10 min at RT. Subsequently, 10 µl of a series concentration of linoleic acid was added to a final concentration ranging from 10 µM to 100 µM. The conversion rate was calculated as the same as […]
described in the IC50 determination assay. Michaelis-Menten plots, Lineweaver-Burk plots, Km, and Vmax, are generated using GraphPad Prism 8.3.0. […]

The target in experiment [2] is T1, 15-LOX-1. Briefly: ABP-based ELISA assay with recombinant 15-LOX-1 (inhibition of Labelox B labeling). Also noted: His-tag (N); made in house; host or cells: E. coli BL21(DE3). Format: biochemical. The method, then: A549 cell lysate was treated with a serial dilution of the respective inhibitor. Subsequently, samples were labeled by treatment with 1 μM of Labelox B for 1 min. […] Data are mean±s.d., n≥3 independent experiments. […]
1.6. Immunoblotting Analysis […]
1.7. ABPP-based LOX inhibitor specificity validation
A549 cells were lysed by RIPA buffer supplemented with 1x PIC. After sonication and centrifugation, the supernatant was collected, and the protein concentration was determined by a Pierce BCA Protein Assay Kit (Thermo Fisher Scientific, USA). The lysates were then diluted with PBS to 300 ng/µl and stored in -20°C. To label endogenous LOXs with Labelox B under the competition condition, 180 µl diluted lysates were incubated with 200 µl different LOX inhibitor solution (in PBS) with desired concentrations for 18 min to inhibit LOXs activity. Later, 20 µl of a 20 µM Labelox B (in PBS) was added and incubated shortly for 2 min, followed by adding 50 µl of a 0.5 M EDTA to stop the labeling reaction. The reaction mixture was 450 µl in total. Inhibitors and Labelox B were absent in positive and […]
negative control, respectively. To detect the competition labeling of Labelox B among different LOXs, a high-binding 96-well plate (Greiner, #M4561) was coated with 5-LOX (#ab169755, Abcam), 12-LOX […]
(1:500 dilution in PBS) for overnight at 4°C. After washing triply with 0.05%PBST, the plate was blocked with 2% (w/v) BSA in PBST. Subsequently, 100 µl of each reaction mixture was added to the LOX-
On the technique in general: In an ELISA, binding on a coated surface is turned into a signal by an enzyme label.

By IC50 is commonly meant the concentration that gives 50% inhibition. Broadly, the pIC50 is the IC50 on a negative log10 scale, so that one unit is a factor of ten.

Turning to `CCCCCC#CCC#CCOC(=O)CCCC[C@@H]1SC[C@@H]2NC(=O)N[C@@H]21` [Labelox B (3)], at 15-LOX-1 [1], the IC50 is 0.62 µM and 0.6 µM. Also, the “Mode of inhibition (Lineweaver–Burk plots)” value on 15-LOX-1 [1] (Km constant, Vmax decreases with inhibitor concentration) was “non‐competitive LOX inhibition”.
On to `c1ccc2c(c1)SCc1c-2[nH]c2ccccc12` [PD146176], for which, on 15-LOX-1 [1], the half-maximal inhibitory concentration (IC50) was approximately 4 µM and the Hill-slope was determined as 1. For the same compound, at 15-LOX-1 [2], the Hill slope entry is recorded as “around 1”. Also, the pIC50 at 15-LOX-1 [2] (read-out: IC50 for attenuation of Labelox B mediated labeling) was ~4.82 and 4.82.
In the case of `O=c1cc(-c2ccccc2)oc2cc(O)c(O)c(O)c12` [Baicalein], the Hill-slope result on 15-LOX-1 [1] is listed as “much higher”. Moreover, the Hill slope result on 15-LOX-1 [2] is listed as “lower than 1”.
